Laboratory results taken from US10952992B2, “Methods of treating intraocular pressure with activators of Tie-2” (Aerpio Pharmaceuticals, Inc., priority 2015, dated 2021).
Several values for one entry are separate records, joined by “and”; a condition that tells them apart may be missing. Equal values may be shown once. Where a name gives a salt, the structure may show the parent alone.

Assay: Example 2 iris, retina, choroid and cornea tissue concentrations
Assay type: in vivo, male New Zealand White rabbits
Conditions: for Choroid Conc. OS / Choroid Conc. OD: choroid homogenate; for Choroid Conc. OS / Choroid tissue Conc. OS / Cornea Conc. OS / Cornea tissue Conc. OS / Iris Conc. OS / Iris tissue Conc. OS / Retina Conc. OS / Retina tissue Conc. OS: left eye; for Choroid Conc. OS / Choroid Conc. OD / Choroid tissue Conc. OS / Choroid tissue Conc. OD / Cornea Conc. OS / Cornea Conc. OD / Cornea tissue Conc. OS / Cornea tissue Conc. OD / Iris Conc. OS / Iris Conc. OD / Iris tissue Conc. OS / Iris tissue Conc. OD / Retina Conc. OS / Retina Conc. OD / Retina tissue Conc. OS / Retina tissue Conc. OD: individual animals; for Choroid Conc. OS / Choroid Conc. OD / Choroid tissue Conc. Avg. / Choroid tissue Conc. OS / Choroid tissue Conc. OD / Cornea Conc. OS / Cornea Conc. OD / Cornea tissue Conc. Avg. / Cornea tissue Conc. OS / Cornea tissue Conc. OD / Iris Conc. OS / Iris Conc. OD / Iris tissue Conc. Avg. / Iris tissue Conc. OS / Iris tissue Conc. OD / Retina Conc. OS / Retina Conc. OD / Retina tissue Conc. Avg. / Retina tissue Conc. OS / Retina tissue Conc. OD: intravitreal 2.5 mg/eye (~1.55 mg/kg), Group 4; for Choroid Conc. OD / Choroid tissue Conc. OD / Cornea Conc. OD / Cornea tissue Conc. OD / Iris Conc. OD / Iris tissue Conc. OD / Retina Conc. OD / Retina tissue Conc. OD: right eye; for Choroid tissue Conc. Avg. / Cornea tissue Conc. Avg. / Iris tissue Conc. Avg. / Retina tissue Conc. Avg.: average; for Cornea Conc. OS / Cornea Conc. OD: cornea homogenate; for Iris Conc. OS / Iris Conc. OD: iris homogenate; for Retina Conc. OS / Retina Conc. OD: retina homogenate
Protocol: To measure the concentration of Compound 1 in plasma and ocular tissues following topical ocular, subcutaneous, and intravitreal administration, New Zealand White rabbits were administered Compound 1, and plasma and ocular samples were collected at pre-determined time points. Compound 1 formulations were prepared fresh on each day of dosing.
Ocular tissue samples from both eyes of each animal were collected and weights were recorded. Plasma and ocular tissue sample concentrations of Compound 1 were determined by LC-MS/MS.
Animals were anesthetized for ocular (topical) and intravitreal dosing following the 12IA7 IACUC protocol. Each rabbit received a bolus dose of test formulation either via topical ocular administration 3 times daily on Days 1 and 2 (at 0, 6, and 12 hours), and once on Day 3 (at 0 hours) into both eyes; via intravitreal administration into both eyes once on Day 1 (at 0 hours); or via subcutaneous administration 2 times daily on Days 1 and 2 (at 0 and 8 hours) and once daily on Day 3 (at 0 hours). Doses were given within an approximately 1 hour window each day where applicable.
On Day 1, for intravitreal administration, or on Day 3, for topical ocular and subcutaneous administration, at the appropriate ocular tissue collection time points, animals were euthanized and both eyes were enucleated immediately. Following enucleation, each eye was rinsed with phosphate-buffered saline. Ocular tissue samples from both eyes of each animal were collected at predetermined time points and weights were recorded. All the samples were frozen immediately on dry ice, and stored at −60° C. to −80° C. pending bioanalysis.
An LC-MS/MS method was developed for the determination of Compound 1 in rabbit aqueous tissues (plasma, aqueous and vitreous humor) and solid ocular tissue samples. A pre-study standard curve was analyzed to determine the specificity, range, and lower limit of quantitation of the method. Plasma and tissue homogenate study samples were extracted and analyzed. All the samples were treated identically to the standards.
One eight-point standard curve was used in each analytical batch. To be accepted, each batch must have had at least five of eight standards with accuracy within ±20% of nominal, except at the lower limit of quantification (LLOQ), where ±25% was acceptable.

[1] = Iris, 4 hr, subcutaneous 5 mg/kg/dose (Group 2), sodium salt
[2] = Iris, 4 hr, topical ocular 1.2 mg/eye (Group 1), sodium salt
[3] = Retina, 0.5 hr, subcutaneous 5 mg/kg/dose (Group 2), sodium salt
[4] = Retina, 0.5 hr, topical ocular 1.2 mg/eye (Group 1), sodium salt
[5] = Retina, 1 hr, subcutaneous 5 mg/kg/dose (Group 2), sodium salt
[6] = Retina, 1 hr, topical ocular 1.2 mg/eye (Group 1), sodium salt
[7] = Retina, 2 hr, subcutaneous 5 mg/kg/dose (Group 2), sodium salt
[8] = Retina, 4 hr, subcutaneous 5 mg/kg/dose (Group 2), sodium salt
[9] = Retina, 4 hr, topical ocular 1.2 mg/eye (Group 1), sodium salt

SMILES: COC(=O)N[C@@H](Cc1ccccc1)C(=O)N[C@@H](Cc1ccc(NS(=O)(=O)O)cc1)c1csc(-c2cccs2)n1 [Compound 1 sodium salt]
- Average (Iris, 2 hr, subcutaneous 5 mg/kg/dose (Group 2), sodium salt): 29.7 ng/g
- Average (Iris, 2 hr, topical ocular 1.2 mg/eye (Group 1), sodium salt): 51.9 ng/g
- Average [1]: 30.4 ng/g
- Conc. (ng/g) OD [1]: 33.8 ng/g
- Conc. (ng/g) OS [1]: 34.1 ng/g
- Conc. (ng/mL) OD [1]: 2.12 ng/mL and 3.07 ng/mL
- Average [2]: 261 ng/g
- Conc. (ng/g) OD [2]: 32.7 ng/g and 27.9 ng/g
- Conc. (ng/g) OS [2]: 30.7 ng/g
- Conc. (ng/mL) OD [2]: 2.97 ng/mL and 2.54 ng/mL
- Average [3]: 40.5 ng/g
- Conc. (ng/g) OD [3]: 30.5 ng/g and 34.9 ng/g
- Conc. (ng/g) OS [3]: 48.0 ng/g and 48.7 ng/g
- Conc. (ng/mL) OD [3]: 2.77 ng/mL and 3.17 ng/mL
- Conc. (ng/mL) OS [3]: 4.36 ng/mL and 4.43 ng/mL
- Average [4]: 25.6 ng/g
- Conc. (ng/g) OS [4]: 33.7 ng/g and 33.1 ng/g
- Conc. (ng/mL) OS [4]: 3.06 ng/mL and 3.01 ng/mL
- Average [5]: 32.6 ng/g
- Conc. (ng/g) OD [5]: 22.4 ng/g and 18.3 ng/g
- Conc. (ng/g) OS [5]: 43.2 ng/g and 46.4 ng/g
- Conc. (ng/mL) OD [5]: 2.04 ng/mL and 1.66 ng/mL
- Conc. (ng/mL) OS [5]: 3.93 ng/mL and 4.22 ng/mL
- Average [6]: 59.2 ng/g
- Conc. (ng/g) OD [6]: 76.9 ng/g and 85.9 ng/g
- Conc. (ng/mL) OD [6]: 6.99 ng/mL and 7.81 ng/mL
- Average [7]: 16.4 ng/g
- Conc. (ng/g) OD [7]: 15.0 ng/g
- Conc. (ng/g) OS [7]: 17.8 ng/g
- Average (Retina, 2 hr, topical ocular 1.2 mg/eye (Group 1), sodium salt): 48.3 ng/g
- Average [8]: 19.7 ng/g
- Conc. (ng/g) OD [8]: 19.7 ng/g
- Conc. (ng/mL) OS [8]: BLOQ
- Average [9]: 405 ng/g
- Conc. (ng/g) OS [9]: 64.8 ng/g
- Choroid Conc. OS (6.0 hr): 105000 ng/mL and 44000 ng/mL
- Choroid Conc. OD (6.0 hr): 164000 ng/mL and 31500 ng/mL
- Choroid Conc. OS (24 hr): 9890 ng/mL and 10400 ng/mL
- Choroid Conc. OD (24 hr): 11800 ng/mL and 18400 ng/mL
- Choroid Conc. OS (48 hr): 3740 ng/mL and 2790 ng/mL
- Choroid Conc. OD (48 hr): 3480 ng/mL and 4040 ng/mL
- Choroid Conc. OS (72 hr): 282 ng/mL and 290 ng/mL
- Choroid Conc. OD (72 hr): 107 ng/mL and 311 ng/mL
- Choroid tissue Conc. Avg. (6.0 hr): 947375 ng/g
- Choroid tissue Conc. OS (6.0 hr): 1155000 ng/g and 484000 ng/g
- Choroid tissue Conc. OD (6.0 hr): 1804000 ng/g and 346500 ng/g
- Choroid tissue Conc. Avg. (24 hr): 138848 ng/g
- Choroid tissue Conc. OS (24 hr): 108790 ng/g and 114400 ng/g
- Choroid tissue Conc. OD (24 hr): 129800 ng/g and 202400 ng/g
- Choroid tissue Conc. Avg. (48 hr): 38638 ng/g
- Choroid tissue Conc. OS (48 hr): 41140 ng/g and 30690 ng/g
- Choroid tissue Conc. OD (48 hr): 38280 ng/g and 44440 ng/g
- Choroid tissue Conc. Avg. (72 hr): 2723 ng/g
- Choroid tissue Conc. OS (72 hr): 3102 ng/g and 3190 ng/g
- Choroid tissue Conc. OD (72 hr): 1177 ng/g and 3421 ng/g
- Cornea Conc. OS (6.0 hr): 6940 ng/mL and 6030 ng/mL
- Cornea Conc. OD (6.0 hr): 6300 ng/mL and 6710 ng/mL
- Cornea Conc. OS (24 hr): 1560 ng/mL and 1930 ng/mL
- Cornea Conc. OD (24 hr): 2180 ng/mL and 2940 ng/mL
- Cornea Conc. OS (48 hr): 662 ng/mL and 487 ng/mL
- Cornea Conc. OD (48 hr): 1050 ng/mL and 538 ng/mL
- Cornea Conc. OS (72 hr): 20.1 ng/mL and 58.1 ng/mL
- Cornea Conc. OD (72 hr): 18.0 ng/mL and 56.9 ng/mL
- Cornea tissue Conc. Avg. (6.0 hr): 71445 ng/g
- Cornea tissue Conc. OS (6.0 hr): 76340 ng/g and 66330 ng/g
- Cornea tissue Conc. OD (6.0 hr): 69300 ng/g and 73810 ng/g
- Cornea tissue Conc. Avg. (24 hr): 23678 ng/g
- Cornea tissue Conc. OS (24 hr): 17160 ng/g and 21230 ng/g
- Cornea tissue Conc. OD (24 hr): 23980 ng/g and 32340 ng/g
- Cornea tissue Conc. Avg. (48 hr): 7527 ng/g
- Cornea tissue Conc. OS (48 hr): 7282 ng/g and 5357 ng/g
- Cornea tissue Conc. OD (48 hr): 11550 ng/g and 5918 ng/g
- Cornea tissue Conc. Avg. (72 hr): 421 ng/g
- Cornea tissue Conc. OS (72 hr): 221 ng/g and 639 ng/g
- Cornea tissue Conc. OD (72 hr): 198 ng/g and 626 ng/g
- distribution among iris, retina, choroid, cornea (FIG. 15) (intravitreal 1.55 mg/kg, sodium salt): generally higher in the retina and choroid
- Iris Conc. OS (6.0 hr): 34000 ng/mL and 30600 ng/mL
- Iris Conc. OD (6.0 hr): 35500 ng/mL and 27800 ng/mL
- Iris Conc. OS (24 hr): 7610 ng/mL and 25900 ng/mL
- Iris Conc. OD (24 hr): 6890 ng/mL and 11000 ng/mL
- Iris Conc. OS (48 hr): 1960 ng/mL and 2780 ng/mL
- Iris Conc. OD (48 hr): 2380 ng/mL and 1820 ng/mL
- Iris Conc. OS (72 hr): 225 ng/mL and 59.5 ng/mL
- Iris Conc. OD (72 hr): 169 ng/mL and 110 ng/mL
- Iris tissue Conc. Avg. (6.0 hr): 351725 ng/g
- Iris tissue Conc. OS (6.0 hr): 374000 ng/g and 336600 ng/g
- Iris tissue Conc. OD (6.0 hr): 390500 ng/g and 305800 ng/g
- Iris tissue Conc. Avg. (24 hr): 141350 ng/g
- Iris tissue Conc. OS (24 hr): 83710 ng/g and 284900 ng/g
- Iris tissue Conc. OD (24 hr): 75790 ng/g and 121000 ng/g
- Iris tissue Conc. Avg. (48 hr): 24585 ng/g
- Iris tissue Conc. OS (48 hr): 21560 ng/g and 30580 ng/g
- Iris tissue Conc. OD (48 hr): 26180 ng/g and 20020 ng/g
- Iris tissue Conc. Avg. (72 hr): 1550 ng/g
- Iris tissue Conc. OS (72 hr): 2475 ng/g and 655 ng/g
- Iris tissue Conc. OD (72 hr): 1859 ng/g and 1210 ng/g
- Retina Conc. OS (6.0 hr): 41100 ng/mL and 82300 ng/mL
- Retina Conc. OD (6.0 hr): 39200 ng/mL and 119000 ng/mL
- Retina Conc. OS (24 hr): 28000 ng/mL and 3700 ng/mL
- Retina Conc. OD (24 hr): 29200 ng/mL and 35200 ng/mL
- Retina Conc. OS (48 hr): 6030 ng/mL and 6530 ng/mL
- Retina Conc. OD (48 hr): 6490 ng/mL and 7360 ng/mL
- Retina Conc. OS (72 hr): 370 ng/mL and 484 ng/mL
- Retina Conc. OD (72 hr): 750 ng/mL and 598 ng/mL
- Retina tissue Conc. Avg. (6.0 hr): 774400 ng/g
- Retina tissue Conc. OS (6.0 hr): 452100 ng/g and 905300 ng/g
- Retina tissue Conc. OD (6.0 hr): 431200 ng/g and 1309000 ng/g
- Retina tissue Conc. Avg. (24 hr): 355850 ng/g
- Retina tissue Conc. OS (24 hr): 308000 ng/g and 407000 ng/g
- Retina tissue Conc. OD (24 hr): 321200 ng/g and 387200 ng/g
- Retina tissue Conc. Avg. (48 hr): 72628 ng/g
- Retina tissue Conc. OS (48 hr): 66330 ng/g and 71830 ng/g
- Retina tissue Conc. OD (48 hr): 71390 ng/g and 80960 ng/g
- Retina tissue Conc. Avg. (72 hr): 6056 ng/g
- Retina tissue Conc. OS (72 hr): 4070 ng/g and 5324 ng/g
- Retina tissue Conc. OD (72 hr): 8250 ng/g and 6578 ng/g
- distribution among iris, retina, choroid, cornea (FIG. 13) (subcutaneous 5 mg/kg/dose, sodium salt): generally higher in the iris and choroid
- ocular tissue concentrations, sodium salt solution compared to free acid suspension (subcutaneous and intravitreal administration): generally higher
- distribution among iris, retina, choroid, cornea (FIG. 12) (topical ocular administration at 0.7 mg/kg/dose): generally higher in the cornea
